# Measurements as given in US5475026A, “Agent for treating hepatic diseases” (Toray Industries, Inc., priority 1991, dated 1995).
# Where a name gives a salt, the structure may show the parent alone.
# What was measured:
# [1] = disorder caused by liver ischemia-recirculation in SD rats (Example 4); type: in vivo, SD male rats; conditions: oral, 30 minutes before ischemia; for GPT level in serum: two hours after recirculation, control 624
# Procedure: Using 8-10 week-old SD male rats, the effectiveness of beraprost by oral administration against the disorder caused by liver ischemia-recirculationwas tested. The sodium salt of beraprost was used as the test compound. The test compound was administered 30 minutes before the induction of liver ischemia. Liver ischemia was induced by ventrotomy under anesthesia and closing the hepatic artery in the outer left leaf and the portal vein with clips. One hour after the clipping, the clips were removed to reopen the vessels. Two hours after recirculation, the GPT level in serum was measured to evaluate the degree of disorder.
# As a control group, one group was treated in the same manner as described above except that distilled water was administered in place of sodium salt of beraprost.
# [2] = hepatic disorder induced by carbon tetrachloride in SD rats, serum GOT (Example 1); type: in vivo, Sprague-Dawley male rats; conditions: 0.3 mg/kg; for GOT level in serum: 24 h after
# Procedure: Using 7 week-old Sprague-Dawley (hereinafter referred to as "SD") male rats, the effectiveness of beraprost against hepatic disorder induced by carbon tetrachloride was tested employing two administration routes, that is, oral and intraperitoneal administrations. Each group consisted of 6 rats. The test compound was the sodium salt of beraprost. The test compound was administered to the rats. which had been fasted for 24 hours, One hour after beraprost administration, 12.5% carbon tetrachloride solution in olive oil was administered in a dose of 2 ml/kg. The carbon tetrachloride solution was intraperitoneally administered to the rats to which the test compound was orally administered. The carbon tetrachloride solution was orally administered to the rats to which the test compound was intraperitoneally administered. After the administration of the carbon tetrachloride solution, the rats were fasted for 24 hours, and the glutamic acid-[…] transaminase (hereinafter referred to as "GOT") level in serum was measured. As a control group, one group was treated in the same manner as described above except that the sodium salt of beraprost was not administered. The results are shown in […]
# [3] = hepatic disorder induced by D-galactosamine in SD rats (Example 2); type: in vivo, SD male rats; conditions: oral
# Procedure: Using 7 week-old SD male rats, the effectiveness of beraprost by oral administration against the hepatic disorder induced by D-galactosamine was tested. As the test compound, the sodium salt of beraprost was used. The test compound was administered in a dose of 0.3 mg/kg per each time at one hour before and 6 hours after the administration of D-galactosamine. D-galactosamine was subcutaneously administered in a dose of 1 g/kg. Forty eight hours after the administration of D-galactosamine, the GOT and glutamic acid-pyruvic acid transaminase (hereinafter referred to as "GPT") levels in serum, and the content of triglyceride in the livers were measured.
# As a control group, one group was treated in the same manner as described above except that sodium salt of beraprost was not administered.
# [4] = increase in lipid peroxide level in the blood induced by carbon tetrachloride in SD rats (Example 3); type: in vivo, SD male rats; conditions: for Lipid Peroxides in serum / GPT level in serum / GOT level in serum: dose not given; for Lipid Peroxides in serum: control 7.10 ± 1.73, non-treated 3.40 ± 0.21; for GPT level in serum: control 3709 ± 406, non-treated 21 ± 2; for GOT level in serum: control 14689 ± 1577, non-treated 95 ± 5
# Procedure: Using 7 week-old SD male rats, each group consisting of 6 rats, the effectiveness of beraprost by oral administration against the increase in the lipid peroxide level in the blood induced by carbon tetrachloride was tested. The sodium salt of beraprost was used as the test compound. 12.5% carbon tetrachloride solution in olive oil was intraperitoneally administered in a dose of 2 ml/kg to the rats which had been fasted for 24 hours. After the administration of the carbon tetrachloride solution, the rats were fasted for another 24 hours and then the levels of lipid peroxide, GOT and GPT in serum were measured. The test compound was administered one hour before (Test Group 1) or 6 hours after (Test Group 2) the administration of the carbon tetrachloride solution. As a control group, one group was treated in the same manner as described above except that the sodium salt of beraprost was not administered.
# rats = experiment: Acute Toxicity Test (Example 5); conditions: rat, in vivo
# Procedure: (§1) Acute toxicity test was carried out using rats.
# (§2) *Litchfield-Wilcoxon Method (see J. Pharmacol. Expl. Therap. Vol. 96, p.
# (§3) The numbers in parentheses indicate 95% reliable limit.
# [5] = Acute Toxicity Test (Example 5); design: species or system rats; conditions: rat, in vivo, 14 days, parentheses: 95% reliable limit, Litchfield-Wilcoxon Method
# Procedure: as §1, §2, §3
# [6] = Test Group 1: oral, one hour before carbon tetrachloride, 24 h after
# [7] = Test Group 2: oral, 6 hours after carbon tetrachloride, measured 24 h after carbon tetrachloride
# [8] = 0.3 mg/kg twice, vs control group
# [9] = oral, one hour before or 6 hours after carbon tetrachloride
structure (smiles),measurement,setting,value
CC#CCC(C)[C@H](O)/C=C/[C@@H]1[C@H]2c3cccc(CCCC(=O)O)c3O[C@H]2C[C@H]1O (relative stereo) [sodium salt of beraprost],GPT level in serum,[1]; 0.03 mg/kg,617 unit/l
same,GPT level in serum,[1]; 0.1 mg/kg,540 unit/l
same,GPT level in serum,[1]; 0.3 mg/kg,427 unit/l
same,decrease in GPT level in serum (in words),[1]; 0.03-0.3 mg/kg,a decrease in GPT level in serum was observed
same,GOT level in serum,"[2]; intraperitoneal, one hour before carbon tetrachloride (oral), control 11943 ± 1216",1889 ± 506 unit/l
same,decrease in GOT (in words),"[2]; oral and intraperitoneal, vs control",significant decrease in GOT was observed
same,GOT level in serum,"[2]; oral, one hour before carbon tetrachloride (intraperitoneal), control 15647 ± 1588",3820 ± 642 unit/l
same,Triglyceride content in the liver,"[3]; 0.3 mg/kg one hour before and 6 hours after D-galactosamine, 48 h, control 42.4 ± 6.0, non-treated 14.1 ± 0.6",12.4 ± 0.7 mg/g tissue
same,GPT level in serum,"[3]; 0.3 mg/kg one hour before and 6 hours after D-galactosamine, 48 h, control 2552 ± 375, non-treated 79 ± 5",1356 ± 187 unit/l
same,GOT level in serum,"[3]; 0.3 mg/kg one hour before and 6 hours after D-galactosamine, 48 h, control 5641 ± 858, non-treated 154 ± 7",3506 ± 377 unit/l
same,Lipid Peroxides in serum,[4]; [6],2.44 ± 0.34 µM
same,GPT level in serum,[4]; [6],1285 ± 344 unit/l
same,GOT level in serum,[4]; [6],4428 ± 1649 unit/l
same,Lipid Peroxides in serum,[4]; [7],2.82 ± 0.52 µM
same,GPT level in serum,[4]; [7],1713 ± 258 unit/l
same,GOT level in serum,[4]; [7],7672 ± 1834 unit/l
"CC#CCC(C)[C@H](O)/C=C/[C@@H]1[C@H]2c3cccc(CCCC(=O)O)c3O[C@H]2C[C@H]1O (relative stereo) [beraprost, (±)-(1R*,2R*, 3aS*,8bS*)-2,3,3a,8b-tetrahydro-2-hydroxy-1-[(E)-(3S*)-3-hydroxy-4methyl-1-ocetene-6-inyl]-1H-cyclopenta[b]benzofuran-5-butyric acid]",pathological symptoms,rats,"slight to medium congestion in lung, slight to medium bleeding in stomach glands and slight small intestine catarrh"
same,side effects,rats,side effects are observed only at very high dose
same,LD50 at 336 h,"[5]; iv, female",13 mg/kg
same,LD50 at 336 h,"[5]; iv, male",18 mg/kg
same,LD50 at 336 h,"[5]; po, female",12 mg/kg
same,LD50 at 336 h,"[5]; po, male",15 mg/kg
same,LD50 at 336 h,"[5]; sc, subcutaneous, female",7 mg/kg
same,LD50 at 336 h,"[5]; sc, subcutaneous, male",13 mg/kg
same,decrease in amount of triglycerides in the liver (in words),[3]; [8],significant decreases
same,decrease in serum GOT (in words),[3]; [8],significant decreases
same,decrease in serum GPT (in words),[3]; [8],significant decreases
same,decrease in GOT (in words),[4]; [9],significant decrease
same,decrease in GPT (in words),[4]; [9],significant decrease
same,decrease in lipid peroxide level in the blood (in words),[4]; [9],significant decrease
